Tested on: mouse cornea (corneal epithelial abrasion)
Assay: In vivo model of corneal wound healing
Settings: treated at 0 and 16 hours; 95-122 10^−5 M; 120-146WH 10^−8 M or 10^−6 M; HB-EGF 250 ng/ml

## LDREANLTSSVTILPLPLQNATVEAGTR (listed as Homo sapiens) [Peptide 95-122]
  corneal wound healing versus vehicle: promotes corneal wound healing

Source: patent publication US9862748B2, “Peptide compounds and methods of production and use thereof” (priority 2012, dated 2018)
